“And” between values parts separate entries of the source, which are not always exact repeats. Identical values can stand only once. Counter-ions that a name gives are not always drawn.
Legend:
NMDAR = conditions: rat cortical membranes
NR1-2A NMDAR = NR1-2A NMDAR (Homo sapiens, UniProt Q05586+Q12879); experiment: Whole-cell manual patch-clamp REL-1017 CRC in 1 mM MgCl2; conditions: 1 mM MgCl2, 1 μM L-glutamate, −60 mV
NR1-2C NMDAR [1] = biological target: T1, NR1-2C NMDAR (Homo sapiens, UniProt Q05586+Q14957); experiment: Whole-cell automated patch-clamp (QPatch) in 1 mM Mg2+; type: cell-based; design: host or cells: CHO (CHO-hN1-h2C), tetracycline-induced expression; conditions: 1 mM Mg2+
T1 sequence (Q14957 20-1233, other chains not shown): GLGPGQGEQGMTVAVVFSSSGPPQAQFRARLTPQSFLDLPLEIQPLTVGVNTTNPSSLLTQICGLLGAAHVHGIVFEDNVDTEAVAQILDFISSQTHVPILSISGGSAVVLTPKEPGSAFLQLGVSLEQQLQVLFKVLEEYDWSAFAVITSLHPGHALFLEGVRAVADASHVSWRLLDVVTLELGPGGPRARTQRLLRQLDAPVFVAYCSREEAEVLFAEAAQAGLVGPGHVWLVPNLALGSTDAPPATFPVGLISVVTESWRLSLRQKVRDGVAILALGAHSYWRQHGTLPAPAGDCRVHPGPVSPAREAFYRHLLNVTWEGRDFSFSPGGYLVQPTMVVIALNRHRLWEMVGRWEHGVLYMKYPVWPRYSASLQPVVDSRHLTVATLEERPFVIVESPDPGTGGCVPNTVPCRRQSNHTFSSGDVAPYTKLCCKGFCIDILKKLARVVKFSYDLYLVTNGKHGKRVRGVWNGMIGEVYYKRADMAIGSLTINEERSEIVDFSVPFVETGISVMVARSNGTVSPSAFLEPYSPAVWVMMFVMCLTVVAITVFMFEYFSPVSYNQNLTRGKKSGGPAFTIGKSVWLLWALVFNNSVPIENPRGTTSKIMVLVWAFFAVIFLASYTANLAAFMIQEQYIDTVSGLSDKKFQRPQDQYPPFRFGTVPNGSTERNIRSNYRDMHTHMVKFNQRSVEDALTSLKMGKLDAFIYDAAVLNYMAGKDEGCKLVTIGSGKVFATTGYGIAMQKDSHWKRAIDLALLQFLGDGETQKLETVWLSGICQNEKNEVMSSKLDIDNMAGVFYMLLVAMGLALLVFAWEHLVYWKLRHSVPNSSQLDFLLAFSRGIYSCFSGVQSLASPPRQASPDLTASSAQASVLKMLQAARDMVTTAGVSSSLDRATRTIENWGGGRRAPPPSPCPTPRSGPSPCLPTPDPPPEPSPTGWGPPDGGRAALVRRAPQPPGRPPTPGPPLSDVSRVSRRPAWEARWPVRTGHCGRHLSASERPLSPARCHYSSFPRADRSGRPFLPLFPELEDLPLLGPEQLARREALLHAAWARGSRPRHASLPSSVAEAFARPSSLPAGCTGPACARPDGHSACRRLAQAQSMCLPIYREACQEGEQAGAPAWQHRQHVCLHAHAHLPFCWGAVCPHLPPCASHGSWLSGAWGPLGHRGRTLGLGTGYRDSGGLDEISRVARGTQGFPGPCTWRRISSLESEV
Protocol: (§1) Data were obtained in automated patch-clamp platform. […] Statistical results of one-way analysis of variance (ANOVA) followed by Tukey’s multiple comparisons test also reported p < 0.05 (*), p < 0.01 (**), p < 0.001 (***), and p < 0.0001 (****). Glu is glutamate.
(§2) For QPatch experiments, cells were grown in T-flasks first at 37 °C, 5% CO2 for 3 to 4 h, then at 30 °C, 5% CO2 for 18 to 24 h in DMEM/F12 medium with added 500 μM ketamine and 10 μg/mL tetracycline (except for NR1-2B-CHO cells) without additional antibiotics. Cells were manually detached from the culture dish and automatically dispensed in QPatch wells with extracellular solution in the presence of 1 mM Mg^2+ and 500 μM ketamine.
(§3) Holding potential was −80 mV, and voltage protocol included a depolarizing 2-s step pulse to +60 mV to check the quality of the seal and cell NMDAR expression level, followed by a 2-s ramp-up to holding potential.

NR1-2D NMDAR = NR1-2D NMDAR (Homo sapiens, UniProt O15399+Q05586); experiment: as above; type: cell-based; design: host or cells: CHO (CHO-hN1-h2D), tetracycline-induced expression; conditions: 1 mM Mg2+, −30 mV to −80 mV
Sequence of NR1-2D NMDAR (O15399 28-1336, other chains not shown): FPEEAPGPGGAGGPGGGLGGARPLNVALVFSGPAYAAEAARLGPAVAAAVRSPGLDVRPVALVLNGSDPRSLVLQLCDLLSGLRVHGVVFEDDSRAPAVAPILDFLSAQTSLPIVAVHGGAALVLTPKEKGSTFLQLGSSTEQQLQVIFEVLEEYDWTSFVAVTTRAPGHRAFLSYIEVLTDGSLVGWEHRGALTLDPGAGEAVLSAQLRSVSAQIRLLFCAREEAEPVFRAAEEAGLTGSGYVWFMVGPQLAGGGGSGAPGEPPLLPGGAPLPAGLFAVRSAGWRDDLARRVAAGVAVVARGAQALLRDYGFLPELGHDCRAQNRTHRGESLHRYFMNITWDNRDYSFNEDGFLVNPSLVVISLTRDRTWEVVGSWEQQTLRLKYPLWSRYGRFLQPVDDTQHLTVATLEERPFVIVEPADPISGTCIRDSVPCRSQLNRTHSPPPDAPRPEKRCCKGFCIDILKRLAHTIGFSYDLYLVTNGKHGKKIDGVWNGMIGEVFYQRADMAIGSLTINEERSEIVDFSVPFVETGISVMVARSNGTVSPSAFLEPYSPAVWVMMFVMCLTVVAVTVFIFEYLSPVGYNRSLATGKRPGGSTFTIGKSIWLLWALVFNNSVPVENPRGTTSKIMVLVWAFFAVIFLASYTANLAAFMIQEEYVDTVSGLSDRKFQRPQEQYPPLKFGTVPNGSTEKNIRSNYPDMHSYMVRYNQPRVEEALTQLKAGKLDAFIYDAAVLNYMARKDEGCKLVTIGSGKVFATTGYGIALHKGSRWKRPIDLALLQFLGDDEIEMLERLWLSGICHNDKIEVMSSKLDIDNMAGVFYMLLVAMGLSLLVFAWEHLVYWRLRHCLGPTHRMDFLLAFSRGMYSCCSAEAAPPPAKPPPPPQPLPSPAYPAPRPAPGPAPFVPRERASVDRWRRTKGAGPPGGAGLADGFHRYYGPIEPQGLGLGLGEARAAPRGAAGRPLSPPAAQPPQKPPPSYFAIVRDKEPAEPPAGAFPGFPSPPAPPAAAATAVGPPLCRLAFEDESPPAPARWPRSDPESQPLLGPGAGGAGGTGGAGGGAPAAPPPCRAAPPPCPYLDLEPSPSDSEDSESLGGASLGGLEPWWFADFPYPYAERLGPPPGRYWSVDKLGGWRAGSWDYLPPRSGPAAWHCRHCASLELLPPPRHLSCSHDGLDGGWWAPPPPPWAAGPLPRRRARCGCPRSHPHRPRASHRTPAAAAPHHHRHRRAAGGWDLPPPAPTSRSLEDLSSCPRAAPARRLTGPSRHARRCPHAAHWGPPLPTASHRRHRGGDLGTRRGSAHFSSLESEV
Protocol: as §1, §2, §3

NR1-2B NMDAR [2] = biological target: T2, NR1-2B NMDAR (Homo sapiens, UniProt Q05586+Q13224); experiment: as above; type: cell-based; design: host or cells: CHO (CHO-hNR1-h2B), constitutive expression; conditions: 1 mM Mg2+
T2 sequence (Q13224 27-1484, other chains not shown): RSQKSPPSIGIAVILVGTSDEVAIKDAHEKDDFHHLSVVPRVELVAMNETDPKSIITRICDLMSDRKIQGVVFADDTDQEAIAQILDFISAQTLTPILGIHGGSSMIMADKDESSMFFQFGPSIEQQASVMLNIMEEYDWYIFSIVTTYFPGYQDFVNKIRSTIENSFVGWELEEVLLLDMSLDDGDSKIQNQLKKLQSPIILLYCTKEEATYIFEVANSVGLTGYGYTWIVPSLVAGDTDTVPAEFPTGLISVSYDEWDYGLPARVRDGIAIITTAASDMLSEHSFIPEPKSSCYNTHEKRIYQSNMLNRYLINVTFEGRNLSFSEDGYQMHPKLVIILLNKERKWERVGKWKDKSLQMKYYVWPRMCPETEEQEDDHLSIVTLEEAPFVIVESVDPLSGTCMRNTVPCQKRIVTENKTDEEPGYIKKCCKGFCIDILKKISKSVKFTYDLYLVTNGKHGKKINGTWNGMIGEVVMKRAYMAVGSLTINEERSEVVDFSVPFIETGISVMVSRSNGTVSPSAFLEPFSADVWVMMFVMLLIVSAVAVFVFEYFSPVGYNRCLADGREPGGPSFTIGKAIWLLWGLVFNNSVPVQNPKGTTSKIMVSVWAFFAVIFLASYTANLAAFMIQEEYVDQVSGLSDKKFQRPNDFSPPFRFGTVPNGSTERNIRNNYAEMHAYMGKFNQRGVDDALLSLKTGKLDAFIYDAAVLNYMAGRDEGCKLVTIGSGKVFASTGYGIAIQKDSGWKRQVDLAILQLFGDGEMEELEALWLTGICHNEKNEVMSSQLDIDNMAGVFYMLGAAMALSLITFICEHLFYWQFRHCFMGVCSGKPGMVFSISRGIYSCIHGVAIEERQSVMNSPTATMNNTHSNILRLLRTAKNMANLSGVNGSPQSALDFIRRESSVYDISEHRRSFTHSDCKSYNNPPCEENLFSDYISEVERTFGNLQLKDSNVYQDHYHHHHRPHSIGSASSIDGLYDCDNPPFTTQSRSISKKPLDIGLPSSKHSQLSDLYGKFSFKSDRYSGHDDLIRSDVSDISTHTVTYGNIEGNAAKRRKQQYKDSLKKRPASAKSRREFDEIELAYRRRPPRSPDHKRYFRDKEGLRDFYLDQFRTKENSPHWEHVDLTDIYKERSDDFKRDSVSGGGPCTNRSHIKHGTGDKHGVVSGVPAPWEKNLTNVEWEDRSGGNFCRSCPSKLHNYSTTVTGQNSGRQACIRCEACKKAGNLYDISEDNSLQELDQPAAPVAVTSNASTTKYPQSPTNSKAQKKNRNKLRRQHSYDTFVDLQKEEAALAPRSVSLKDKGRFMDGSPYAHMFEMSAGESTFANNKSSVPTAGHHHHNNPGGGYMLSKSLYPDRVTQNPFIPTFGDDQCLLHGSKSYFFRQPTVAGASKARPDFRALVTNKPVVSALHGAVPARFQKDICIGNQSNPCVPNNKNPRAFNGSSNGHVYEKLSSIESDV
Protocol: as §1, §2, §3

NR1-2C NMDAR [3] = biological target: T1, NR1-2C NMDAR; experiment: Whole-cell manual patch-clamp: current block, onset/offset kinetics and trapping, no Mg2+; conditions: test item 10 µM, −70 mV
NR1-2C NMDAR [4] = biological target: T1, NR1-2C NMDAR; experiment: Whole-cell manual patch-clamp REL-1017 CRC in 1 mM MgCl2; conditions: 1 mM MgCl2, 1 μM L-glutamate, −60 mV
NR1-2B NMDAR [5] = biological target: T2, NR1-2B NMDAR; experiment: as above; conditions: 1 mM MgCl2, 1 μM L-glutamate, −60 mV
[6] = 10 μM REL-1017, 1 μM L-glutamate
[7] = 10 μM REL-1017, 10 μM L-glutamate

| Structure (SMILES) | IC50 (NMDAR; [3H]TCP 4 nM) | Ki (NMDAR; [3H]TCP, Cheng and Prusoff) | Hill Slope (NR1-2A NMDAR) | effect on L-glutamate-elicited current (NR1-2C NMDAR [1]; [6]) | effect on L-glutamate-elicited current (NR1-2C NMDAR [1]; [7]) | effect on L-glutamate-elicited current (NR1-2D NMDAR; [6]) | effect on L-glutamate-elicited current (NR1-2D NMDAR; [7]) | effect on L-glutamate-elicited current (NR1-2B NMDAR [2]; [6]) | effect on L-glutamate-elicited current (NR1-2B NMDAR [2]; [7]) | I1 (% Current) at end of test item addition, normalized to I0 (NR1-2C NMDAR [3]; 30 s co-application) | I2 (% Current) at end of test item removal, normalized to I0 (NR1-2C NMDAR [3]; 50 s after removal) | BR (residual block) (NR1-2C NMDAR [3]; after wash with glycine alone) | B (initial block) (NR1-2C NMDAR [3]) | BT (trapped block, BR/B × 100) (NR1-2C NMDAR [3]) | Tau off (NR1-2C NMDAR [3]) | Tau on (NR1-2C NMDAR [3]) | Hill Slope (NR1-2C NMDAR [4]) | Hill Slope (NR1-2B NMDAR [5]) |
| --- | --- | --- | --- | --- | --- | --- | --- | --- | --- | --- | --- | --- | --- | --- | --- | --- | --- | --- |
| COc1ccc2c(c1)[C@]13CCCC[C@@H]1[C@H](C2)N(C)CC3 [Dextromethorphan, dextromethorphan] | 2060 nM | 1400 nM |  |  |  |  |  |  |  |  |  |  |  |  |  |  |  |  |
| CCC(=O)C(C[C@H](C)N(C)C)(c1ccccc1)c1ccccc1 [REL-1017, dextromethadone HCl] |  |  | 1.06 | inactive | inactive | significantly reduced | significantly reduced | inactive | significantly reduced the elicited current only at −30 mV, −40 mV, and −50 mV | 20.4% | 98.5% | 71.8 ± 1.1 | 84 ± 1% and 83.8 ± 1.2 % | 85.9 ± 1.9% | 17.7 ± 1.0 s | 4.7 ± 0.21 s | 1.49 | 1.17 |

Source: paper PMC9414551 (Pharmaceuticals, 2022)
